According to PMC10119282, “Molecular characterization of AIFM2/FSP1 inhibition by iFSP1-like molecules” (Cell Death & Disease, 2023):
One block for each compound: values may come before it.

Legend:
[1] = test system: Pfa1 Gpx4−/− overexpressing hFSP1 WT, hFSP1 F360L and mFSP1 WT; assay: Cell viability response to N-myristoyltransferase inhibitor IMP-1088; format: cell-based, murine
Method: (§1) Cell Lines. 4-hydroxytamoxifen (TAM)-inducible Gpx4^−/− murine immortalized fibroblasts (Pfa1) were reported previously. These cells harbor two loxP-flanked Gpx4 alleles and stably express TAM inducible Cre recombinase allowing the genetic deletion of Gpx4 at will. For all experiments using Gpx4^−/− the well were treated with 4-hydroxitamoxifen (TAM) 1 µM. All cells were cultured with were cultured in DMEM-high glucose (4.5 g glucose/L) with 10% fetal bovine serum (FBS), Glutamax, and 1% penicillin/streptomycin (Gibco, Thermo Fischer) at 37 °C with 5% CO2 and verified to be negative for mycoplasma.
(§2) Cell viability assays. Alamar Blue method: Cells were seeded on 96-well plates (2000 cells per well) and treated with the compounds RSL3, iFSP1 and (liproxstatin-1) after plating. Cell viability was assessed 48 h (unless stated otherwise) after treatment using Alamar Blue as an indicator of viable cells. Alamar blue solution was made by dissolving of 1 g resazurin sodium salt (Thermo Fischer) in 200 mL sterile PBS and sterile filtrated through a 0.22 µm filter. Stock solutions were stored at 4 °C. The working solution was made freshly by adding 200 µL of the stock solution to 25 mL growth media. After 2–4 h incubation time, viability was estimated by measuring the fluorescence using a 540/35 excitation filter and a 590/20 emission on a Spark® microplate reader (Tecan, Zürich, Switzerland).

[2] = test system: Pfa1 Gpx4−/− cells overexpressing human FSP1 (hFSP1); assay: Cell viability (Alamar blue), dose-response toxicity in Gpx4-knockout cells expressing hFSP1; format: cell-based, murine; details: cells treated with iFSP1
Method: as §1, §2
Codon-optimized Mus musculus (mouse) FSP1 (NP_001034283.1) and Homo sapiens (Human) FSP1 (NP_001185625.1) were synthesized by IDT as gBlocks^TM and subcloned into p442-IRES-blast vectors. The chimera constructs were generated based on the pairwise alignment between the gene of Homo sapiens (Human) and the Mus musculus (Mouse), all the chimeric constructs contain the murine isoform with one region exchanged to the human isoform. […]

[3] = test system: Pfa1 Gpx4−/− cell line overexpressing hFSP1, mFSP1 and hFSP1 F360L mutants; assay: BODIPY 581/591 C11 oxidation (flow cytometry); format: cell-based, murine; details: iFSP1 3 µM for 3 h with Lip-1; all conditions
Method: In total, 150,000 cells per well were seeded on 6-well dishes one day prior to the experiment. […] Cells were incubated with C11-BODIPY (581/591) (1 μM) for 30 min at 37 °C before they were harvested by trypsinisation. Subsequently, cells were resuspended in 500 μL of fresh PBS (DPBS, Gibco) and analyzed using a 488-nm laser excitation laser and fluorescence recorded on a (FACS Canto II, BD Biosciences). Data was collected from the FL1 detector (C11-BODIPY, Invitrogen) with a 502LP and 530/30 BP filter. At least 20,000 events were analyzed per sample. Data was analyzed using FlowJo Software version 10.8.1.

hFSP1 WT = biological target: T1, hFSP1 WT (Homo sapiens, UniProt Q9BRQ8); assay: Competition MST against pre-formed complex of hFSP1 WT and FSP1-Tracer; format: binding; details: hFSP1 WT 5 µM and FSP1-Tracer 5 nM pre-formed complex
T1 construct: HisSUMO (cleaved yes); made in house; host or cells: E. coli BL21
T1 sequence (Q9BRQ8 1-373): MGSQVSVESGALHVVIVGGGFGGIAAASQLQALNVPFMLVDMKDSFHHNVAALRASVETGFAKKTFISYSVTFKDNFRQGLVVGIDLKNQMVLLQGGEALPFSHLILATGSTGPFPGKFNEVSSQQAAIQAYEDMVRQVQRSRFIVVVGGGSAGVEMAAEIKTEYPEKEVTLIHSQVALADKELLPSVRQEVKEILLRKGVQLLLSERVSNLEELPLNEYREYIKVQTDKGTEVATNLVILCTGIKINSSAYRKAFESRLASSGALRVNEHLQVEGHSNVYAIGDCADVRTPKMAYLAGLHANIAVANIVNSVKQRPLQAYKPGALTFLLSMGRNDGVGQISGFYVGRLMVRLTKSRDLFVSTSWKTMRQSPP
Method: FSP1 (human isoform 1, UniProt Q9BRQ8-1) WT (hFSP1 WT) and F360L (hFSP1 F360L) were expressed in E.coli BL21 as HisSUMO fusion protein. Cells were grown in lysogeny broth medium at 18 °C and induced with 0.5 mM isopropyl-β-thiogalactoside at a cell density A600 of 0.6. Cells were collected after overnight expression by centrifugation, resuspended in lysis buffer ([…], 50 mM Tris-HCl pH 8, 1 mM TCEP, 20 mM imidazole, protease inhibitor, DNase) and lysed by sonication. Cell debris was removed by centrifugation (30,000 × g) at 4 °C for 30 min, after which an IMAC purification was performed. Briefly, a HisTrap crude FF (5 mL) column was equilibrated to lysis buffer, lysates were loaded via the sample pump and the column was then washed with 50 mL lysis buffer. During the elution with a gradient to 100% IMAC elution buffer (300 mM NaCl, 50 mM Tris-HCl pH 8, 1 mM TCEP, 400 mM imidazole) over 100 mL, 5 mL fractions were collected. The pooled fractions were dialysed overnight in the presence of SenP2 SUMO protease at a ratio of 40:1 FSP1:SenP2. Afterwards, a reverse IMAC purification was performed on a HisTrap crude FF (5 mL) column. IMAC eluates were analysed by SDS PAGE and concentrated to 15 mL (hFSP1 WT) and 5 mL (hFSP1 F360L), respectively. […] Pure fractions were pooled (C12—D11 for hFSP1 WT and C7—D4 for hFSP1 F360L), analysed by SDS-PAGE (Supplementary Fig. 4) and concentrated to 5.8 mL at 285.9 µM (hFSP1 WT) and 1.2 mL at 269.5 µM (FSP1 F360L), flash frozen in liquid N2 and stored at −80 °C.
An MST buffer consisting of 1× phosphate-buffered saline (PBS; 137 mM NaCl, 2.7 mM KCl, 10 mM Na2HPO4, 1.8 mM KH2PO4, pH 7.4) with 2 mM reduced L-Glutathione (GSH, Sigma Aldrich, product number G4251) and 0.05% (v/v) Tween 20 (ITW Reagents, molecular biology grade, product number A4974) was used for all MST measurements. […] KD values were determined by applying a Hill-fit to a plot of Fnorm vs. hFSP1 WT/F360L concentration. […]

[4] = test system: Pfa1 cells overexpressing the mock, hFSP1 WT, hFSP1 F360L and mFSP1 WT; assay: Cell viability response to GPX4 inhibitor RSL3; format: cell-based, murine; details: Alamar blue viability
Method: as §1, §2

Structure (SMILES): Cc1nn(C)c(C)c1CCOc1c(-c2ccc3c(c2)c(CN(C)C)nn3C)ccc(F)c1F [IMP-1088]
ferroptosis induction across FSP1 variants [1]: all mutants undergo ferroptosis similarly

Structure (SMILES): Clc1cccc(CN=C2Nc3ccccc3NC23CCNCC3)c1 [Lip-1, liproxstatin-1]
rescue from iFSP1-induced ferroptosis [2]: rescuing the cells | rescue of the iFSP1-induced increase in BODIPY-C11 signal [3]: could be rescued

Ki (hFSP1 WT): 455 nM
Structure (SMILES): NC(=O)C1=CN(C2OC(COP(=O)(O)OP(=O)(O)OCC3OC(n4cnc5c(N)ncnc54)C(O)C3O)C(O)C2O)C=CC1 (centres unmarked) [NADH]

Structure (SMILES): COC(=O)c1ccc([C@@H]2c3[nH]c4ccccc4c3C[C@@H](C(=O)OC)N2C(=O)CCl)cc1 [RSL3, (1 S,3 R)-RSL3]
difference in response to the GPX4 inhibitor between cells overexpressing the FSP1 variants [4]: no difference in response
